Structures can show the parent of a compound that is named as a salt. Where two headings read alike, the source gives them in different places.
Key:
influenza viruses = assay: microbe, parasite or virus in culture; assay type: cell-based, influenza virus; details: for inhibition at 10 µM: read-out: inhibition of CPE at 10 μM
[1] = test system: influenza neuraminidase (NA), inactivated viral suspensions of influenza A/Udorn/72 (H3N2); assay type: biochemical
[2] = biological target: NA in inactivated viral suspension of influenza A/Udorn/72 (H3N2) (Influenza A virus (H3N2), UniProt P0DOF6); assay type: biochemical; details: read-out: IC50 NA inhibition
NIBRG-14 (H5N1) = assay: microbe, parasite or virus in culture; assay type: cell-based, influenza NIBRG-14 (H5N1); details: read-out: EC50 viral plaque formation
[3] = test system: influenza A/WSN/33 (H1N1); assay: microbe, parasite or virus in culture; assay type: cell-based; details: read-out: EC50 viral plaque formation
[4] = biological target: influenza A/WSN/33 (H1N1) polymerase complex (PA, PB1, PB2, NP) (Influenza A virus, UniProt P03427+P03430+P15659); assay type: cell-based
SARS-CoV = details: cited from earlier work
[5] = test system: influenza A/Udorn/72 (H3N2); assay: microbe, parasite or virus in culture; assay type: cell-based; details: read-out: EC50 viral plaque formation
[6] = test system: influenza A/WSN/33 (H1N1); assay type: cell-based
in vitro = details: dog
[7] = read-out: CPE inhibition IC50 (<10 μM), symbol
[8] = unidentified influenza virus, MDCK, 72 h, read-out: CPE inhibition IC50 (<10 μM)
[9] = unidentified influenza virus, MDCK

O=C(O[C@@H]1Cc2c(O)cc(O)cc2O[C@@H]1c1cc(O)c(O)c(O)c1-c1c([C@H]2Oc3cc(O)cc(O)c3C[C@H]2OC(=O)c2cc(O)c(O)c(O)c2)cc(O)c(O)c1O)c1cc(O)c(O)c(O)c1 [2′2′-Bisepigallocatechin digallate]
IC50 (influenza viruses; [7]): > 10 µM
CC50 (MDCK cells): > 50 µM
NA activity inhibition at 50 μM (%) [1]: 60.6%

O=C(O)C1=CC(=C(c2ccc(O)c(C(=O)O)c2)c2ccc(O)c(C(=O)O)c2)C=CC1=O [ATA, aurintricarboxylic acid]
IC50 [2]: 13.8 µM
IC50 (influenza viruses; [8]): 9.4 µM
inhibition at 10 µM (influenza viruses; [9]): > 50%
EC50 (NIBRG-14 (H5N1); Influenza A virus, H5N1, MDCK): 5.4 µM
EC50 ([3]; Influenza A virus, H1N1|WSN, MDCK): 4.1 µM
inhibition of RdRp-derived expression of CAT [4]: did not inhibit
EC50 for SARS-CoV (SARS-CoV): 200 µg/mL
NA activity inhibition at 50 μM (%) [1]: 100.0%
EC50 ([5]; Influenza A virus, H3N2, MDCK): 6.3 µM
reduction of the viral yield [6]: > 1000 fold
reduction of the yield of influenza progeny virus [6]: only marginal activity
CC50 (in vitro): 95.5 µM

CCCc1ncc(C[n+]2ccccc2C)c(N)n1 [Amprolium]
NA activity inhibition at 50 μM (%) [1]: 95.0%

CC1(C)OCC(C2OC(=O)C(O)=C2O)O1 (stereo not drawn) [Ascorbic acid acetonide]
IC50 (influenza viruses; [7]): > 10 µM
NA activity inhibition at 50 μM (%) [1]: 83.5%

S=C=NCc1ccccc1 [Benzyl isothiocyanate]
NA activity inhibition at 50 μM (%) [1]: 75.5%

CCc1ccc2c(O)c3c(cc2c1C(=O)OC)C(=O)c1c(O)ccc(O)c1C3=O [Bisanhydrorutilantinone]
NA activity inhibition at 50 μM (%) [1]: 71.9%

Cc1cc(=O)c2c(o1)-c1c(cc(O)c(O)c1C(=O)O)OC2 [Citromycetin]
IC50 (influenza viruses; [7]): > 10 µM
NA activity inhibition at 50 μM (%) [1]: 46.8%

CC(=O)[C@@]1(O)CC[C@H]2[C@@H]3C=C(Cl)C4=CC(=O)[C@@H]5C[C@@H]5[C@]4(C)[C@H]3CC[C@@]21C [Cyproterone]
IC50 (influenza viruses; [7]): > 10 µM
NA activity inhibition at 50 μM (%) [1]: 55.7%

COc1ccc(-c2cc(=O)c3c(O)cc(O)cc3o2)cc1O [Diosmetin]
NA activity inhibition at 50 μM (%) [1]: 59.0%

CCOC(=O)C1=C(O)C(=O)N(Cc2ccccc2)C1 [Ethyl1-benzyl-3-hydroxy-2-oxo(5H)pyrrole-4-carboxylate]
NA activity inhibition at 50 μM (%) [1]: 71.9%

CCC(CC)O[C@@H]1C=C(C(=O)O)C[C@H](N)[C@H]1NC(C)=O [GS4071, Oseltamivir carboxylate]
IC50 (influenza viruses; read-out: CPE inhibition IC50 (<10 μM)): 0.1 µM
EC50 [3]: ~0.04 µM
NA activity inhibition at 50 μM (%) [1]: 100.0%
EC50 [5]: ~0.04 µM
reduction in the yield of progeny virus [6]: no reduction
reduction of the viral yield [6]: effective to reduce the viral yield
CC50 (in vitro): > 25 µM

O=C(/C=C/c1ccc(O)cc1)c1ccc(O)cc1O [Isoliquiritigenin]
NA activity inhibition at 50 μM (%) [1]: 62.6%

CC(=O)N1CCN(c2ccc(OCC3COC(Cn4ccnc4)(c4ccc(Cl)cc4Cl)O3)cc2)CC1 (stereo not drawn) [Ketoconazole]
NA activity inhibition at 50 μM (%) [1]: 72.2%

COC(=O)C(N)CS (stereo not drawn) [Mecysteine hydrochloride]
NA activity inhibition at 50 μM (%) [1]: 51.3%

Cc1cnc(NC(=O)C2=C(O)c3ccccc3S(=O)(=O)N2C)s1 [Meloxicam]
NA activity inhibition at 50 μM (%) [1]: 62.1%

O=c1c(O)c(-c2cc(O)c(O)c(O)c2)oc2cc(O)cc(O)c12 [Myricetin]
NA activity inhibition at 50 μM (%) [1]: 61.6%

CO[C@H]1C[C@H](O[C@H]2CC[C@]3(C)[C@H]4CC[C@]5(C)[C@@H](C6=CC(=O)OC6)CC[C@]5(O)[C@@H]4CC[C@]3(O)C2)O[C@H](C)[C@H]1O [Periplocymarin]
IC50 (influenza viruses; [8]): 0.3 µM
inhibition at 10 µM (influenza viruses; [9]): > 50%
NA activity inhibition at 50 μM (%) [1]: 75.2%
CC50 (in vitro): < 50 µM

C1CNCCN1 [Piperazine]
NA activity inhibition at 50 μM (%) [1]: 100.0%

O=C(O)c1cc(O)c2c(c1)[C@H]([C@H]1c3cc(C(=O)O)cc(O)c3C(=O)c3c(O[C@@H]4O[C@H](CO)[C@@H](O)[C@H](O)[C@H]4O)cccc31)c1cccc(O[C@@H]3O[C@H](CO)[C@@H](O)[C@H](O)[C@H]3O)c1C2=O [Sennoside A]
NA activity inhibition at 50 μM (%) [1]: 61.9%

N#Cc1c(Cl)c(Cl)c(Cl)c(C#N)c1Cl [Tetrachloroisophthalonitrile]
IC50 (influenza viruses; [7]): > 10 µM
NA activity inhibition at 50 μM (%) [1]: 76.9%

O=C(O[C@@H]1Cc2c(O)cc(O)cc2O[C@@H]1c1cc(O)c(=O)c2c(O)c(O)cc([C@H]3Oc4cc(O)cc(O)c4C[C@H]3OC(=O)c3cc(O)c(O)c(O)c3)c2c1)c1cc(O)c(O)c(O)c1 [Theaflavin digallate]
NA activity inhibition at 50 μM (%) [1]: 61.5%

— PMC7114187 (Antiviral Research, 2008)
